From patent publication US11370773B1, “Inhibiting human integrin (alpha-4) (beta-7)” (Morphic Therapeutic, Inc., priority 2019, dated 2022)

Each molecule was assayed against T1, α4β7 (Homo sapiens, UniProt P13612+P26010) (assay: Cell adhesion assay, RPMI8866 cells adhering to MAdCAM coated plates). Conditions: RPMI8866 cells on recombinant human MAdCAM coated plates; read-out: CA Assay (Example 7) IC50.
T1 construct: α4β7 expressing cells (RPMI-8866); endogenous in cells; host or cells: RPMI 8866
T1 sequence (P13612 34-1032): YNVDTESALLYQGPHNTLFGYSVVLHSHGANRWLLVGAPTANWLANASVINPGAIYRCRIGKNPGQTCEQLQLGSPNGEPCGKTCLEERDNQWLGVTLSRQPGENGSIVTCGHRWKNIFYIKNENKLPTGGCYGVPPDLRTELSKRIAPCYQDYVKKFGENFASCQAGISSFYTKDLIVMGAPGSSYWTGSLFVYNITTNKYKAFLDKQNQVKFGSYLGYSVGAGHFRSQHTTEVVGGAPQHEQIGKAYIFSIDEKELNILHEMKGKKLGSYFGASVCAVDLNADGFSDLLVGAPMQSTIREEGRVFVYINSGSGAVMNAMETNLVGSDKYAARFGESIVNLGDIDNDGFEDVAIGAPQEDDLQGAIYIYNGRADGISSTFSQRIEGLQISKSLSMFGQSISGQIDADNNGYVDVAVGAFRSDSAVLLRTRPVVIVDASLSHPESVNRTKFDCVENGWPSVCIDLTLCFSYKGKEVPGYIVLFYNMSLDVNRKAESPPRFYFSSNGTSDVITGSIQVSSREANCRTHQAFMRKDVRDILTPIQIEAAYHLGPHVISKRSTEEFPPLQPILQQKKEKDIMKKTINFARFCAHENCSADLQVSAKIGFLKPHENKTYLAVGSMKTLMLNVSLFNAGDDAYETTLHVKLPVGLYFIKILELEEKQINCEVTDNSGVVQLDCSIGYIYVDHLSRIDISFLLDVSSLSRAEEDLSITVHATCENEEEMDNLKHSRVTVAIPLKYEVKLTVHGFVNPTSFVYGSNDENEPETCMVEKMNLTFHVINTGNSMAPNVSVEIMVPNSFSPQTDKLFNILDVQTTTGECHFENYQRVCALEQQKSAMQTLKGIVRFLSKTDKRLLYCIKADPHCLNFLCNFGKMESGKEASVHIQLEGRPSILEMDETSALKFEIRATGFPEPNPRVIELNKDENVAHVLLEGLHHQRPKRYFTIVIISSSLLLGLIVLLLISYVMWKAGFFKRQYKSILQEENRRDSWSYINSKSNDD
T1 sequence (P26010 20-798): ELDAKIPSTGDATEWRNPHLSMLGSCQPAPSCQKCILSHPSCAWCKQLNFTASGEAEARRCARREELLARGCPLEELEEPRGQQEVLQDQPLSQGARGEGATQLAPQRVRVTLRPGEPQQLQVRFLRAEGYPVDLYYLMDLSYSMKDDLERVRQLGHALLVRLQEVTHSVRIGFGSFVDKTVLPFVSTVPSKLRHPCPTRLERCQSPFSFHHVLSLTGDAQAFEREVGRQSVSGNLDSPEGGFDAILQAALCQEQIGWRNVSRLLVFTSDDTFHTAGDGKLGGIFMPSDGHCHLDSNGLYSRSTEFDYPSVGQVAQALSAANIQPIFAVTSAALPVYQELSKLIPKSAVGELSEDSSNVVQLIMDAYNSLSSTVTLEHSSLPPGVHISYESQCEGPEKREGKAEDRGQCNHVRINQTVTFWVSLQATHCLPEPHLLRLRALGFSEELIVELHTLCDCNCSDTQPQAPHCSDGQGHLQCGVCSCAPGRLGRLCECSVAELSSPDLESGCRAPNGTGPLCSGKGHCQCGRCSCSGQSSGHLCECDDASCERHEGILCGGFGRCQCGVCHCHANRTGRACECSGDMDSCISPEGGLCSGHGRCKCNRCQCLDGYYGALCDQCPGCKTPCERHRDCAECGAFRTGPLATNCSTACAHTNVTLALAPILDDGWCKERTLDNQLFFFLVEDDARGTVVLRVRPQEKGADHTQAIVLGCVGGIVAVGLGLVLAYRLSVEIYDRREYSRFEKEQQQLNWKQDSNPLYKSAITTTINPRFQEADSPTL
Type: cell-based
Method: Three in vitro assays were used to examine the α4β7 mechanistic process used by cells: 1) ligand:receptor affinity, 2) the avidity of those interactions on a cell's surface, and 3) how those interactions fare under an imposing force. In Example 5, a Fluorescence Polarization (FP) assay is used to measure compound activity through binding competition with the fluorescein-labeled peptide. In Example 6, the potency of compounds against α4β7 is measured in the cell-based ligand binding assay (LBA), using RPMI 8866 cells incubated with the compound samples in competition with soluble MAdCAM-1 ligand. In Example 7, activity of compounds is evaluated in a cell adhesion assay that mechanistically tests what occurs in vivo when trafficking cells utilize α4β7 to adhere to MAdCAM-1 expressing HEVs of the gut during the extravasation process. In the cell adhesion assay of Example 7, a MAdCAM1-(Fc) is coated on plastic, and α4β7 expressing cells (RPMI-8866) are allowed to adhere to the coated surface in the presence of the test compounds. Next, the force of washing with buffer is applied to cells thereby testing the strength of that adhesion. Unattached cells are removed and the remaining adherent cells are quantified.
Example 7 describes a cell adhesion assay.
To each well of a 96 well plate, 100 ug of recombinant human MAdCAM in 100 ul PBS is added and incubated overnight at 4° C. After incubation MAdCAM is removed by aspiration and 200 ul of PBS+1% BSA is added to block the plate for 2 hours at 37° C. and 5% CO2. During this incubation dilution curves of compound are made in 100% DMSO in 96 well V bottom plates. 1.75 ul of diluted compounds are then transferred to a new 96 well U bottom plate containing 20 ul of assay media (phosphate free DMEM+25 mM HEPES+1% BSA). To this an additional 155 ul of assay media is added with mixing by pipetting up and down. This mixture is allowed to incubate for 15 minutes at 37° C. and 5% CO2. After incubation 175 ul of assay media containing 2e6/mL RPMI8866 cells is added to compound containing wells without mixing and plate is allowed to incubate for another 15 minutes at 37° C. and 5% CO2. During this incubation MAdCAM coated plates are removed from incubator and washed twice with 200 ul PBS+0.1% BSA. […] This plate is then incubated at 37° C. and 5% CO2 for 1 hour. After incubation plates are washed twice with 200 ul and once with 50 ul of phenol free RPMI+1% BSA. A final 50 ul of phenol free RPMI+1% BSA is added to wells after last wash. Next 50 ul of Promega cell titer glow is added to the wells. Plate is incubated on shaker for 2 minutes at 200 RPM followed by another 8 minutes off shaker before having the luminescence read on a Biotek Citation 5 plate reader. Raw data is converted to % inhibition compared to bottom of curve and analyzed using a 4-parameter non linear curve in Prism to determine IC50 and IC90.

| Compound | IC50 [nM] |
| --- | --- |
| Cc1ccn([C@@H](NC(C)C)C(=O)N[C@@H](CC(=O)O)c2cncc(-c3c(C)cccc3C)c2)c(=O)c1 [Example C-7, reference compound] | 10 to 50 |
| Cc1ccc(F)c(C)c1-c1cc(C2CC2)c(F)c([C@H](CC(=O)O)NC(=O)[C@H](CC(C)C)n2cc(CCN3CCC3)c(C(F)(F)F)cc2=O)c1F [HH-P2, (3S)-3-(2-(5-(2-(azetidin-1-yl)ethyl)-2-oxo-4-(trifluoromethyl)pyridin-1(2H)-yl)-4-methylpentanamido)-3-(5-cyclopropyl-2,3′,4-trifluoro-2′,6′-dimethyl-[1,1′-biphenyl]-3-yl)propanoic Acid] | 5 to 10 |
| Cc1cc(C2CC2)cc(C)c1-c1cc(C(F)(F)F)c(F)c([C@H](CC(=O)O)NC(=O)[C@H](CC(C)C)n2cc(CCCN(C)C)c(C(F)(F)F)cc2=O)c1F [HU-P2, (3S)-3-(4′-cyclopropyl-2,4-difluoro-2′,6′-dimethyl-5-(trifluoromethyl)-[1,1′-biphenyl]-3-yl)-3-(2-(5-(3-(dimethylamino)propyl)-2-oxo-4-(trifluoromethyl)pyridin-1(2H)-yl)-4-methylpentanamido)propanoic Acid] | 5 to 10 |
| Cc1cc(C)c(-c2cc(C(F)(F)F)c(F)c([C@H](CC(=O)O)NC(=O)[C@H](CC(C)C)n3cc(CCCN(C)C)c(C(F)(F)F)cc3=O)c2F)c(C)c1 [HZ-P2, (3S)-3-(2,4-difluoro-2′,4′,6′-trimethyl-5-(trifluoromethyl)biphenyl-3-yl)-3-(2-(5-(3-(dimethylamino)propyl)-2-oxo-4-(trifluoromethyl)pyridin-1(2H)-yl)-4-methylpentanamido)propanoic Acid] | 5 to 10 |
| Cc1cc(C)c(-c2cc(C(F)(F)F)c(F)c([C@H](CC(=O)O)NC(=O)[C@H](CC(C)C)n3cc(CCN4CCC4)c(C(F)(F)F)cc3=O)c2F)c(C)c1 [IG-P2, (3S)-3-(2-(5-(2-(azetidin-1-yl)ethyl)-2-oxo-4-(trifluoromethyl)pyridin-1(2H)-yl)-4-methylpentanamido)-3-(2,4-difluoro-2′,4′,6′-trimethyl-5-(trifluoromethyl)biphenyl-3-yl)propanoic Acid] | < 5 |
| Cc1cc(C)c(-c2cc(C)c(F)c([C@H](CC(=O)O)NC(=O)[C@H](CC(C)C)n3cc(CCCN(C)C)c(C(F)(F)F)cc3=O)c2F)c(C)c1F [IW-P2, (3S)-3-(2-(5-(3-(dimethylamino)propyl)-2-oxo-4-(trifluoromethyl)pyridin-1(2H)-yl)-4-methylpentanamido)-3-(2,3′,4-trifluoro-2′,4′,5,6′-tetramethyl-[1,1′-biphenyl]-3-yl)propanoic Acid] | 5 to 10 |
| Cc1cc(F)c(C)c(C)c1-c1cc(C(F)(F)F)c(F)c([C@H](CC(=O)O)NC(=O)[C@H](CC(C)C)n2cc(CCN3CCC3)c(C(F)(F)F)cc2=O)c1F [KT-P2, (3S)-3-(2-(5-(2-(azetidin-1-yl)ethyl)-2-oxo-4-(trifluoromethyl)pyridin-1(2H)-yl)-4-methylpentanamido)-3-(2,4,4′-trifluoro-2′,3′,6′-trimethyl-5-(trifluoromethyl)-[1,1′-biphenyl]-3-yl)propanoic Acid] | < 5 |

Other lines, results leading:

| IC50 [nM] | Compound |
| --- | --- |
| < 5 | Cc1cc(C)c(-c2cc(C3CC3)c(F)c([C@H](CC(=O)O)NC(=O)[C@H](CC(C)C)n3cc(CCN4CCC4)c(C(F)(F)F)cc3=O)c2F)c(C)c1 [HM-P2, (3S)-3-(2-(5-(2-(azetidin-1-yl)ethyl)-2-oxo-4-(trifluoromethyl)pyridin-1(2H)-yl)-4-methylpentanamido)-3-(5-cyclopropyl-2,4-difluoro-2′,4′,6′-trimethylbiphenyl-3-yl)propanoic Acid] |
| < 5 | Cc1cc(F)cc(C)c1-c1cc(C(F)(F)F)c(F)c([C@H](CC(=O)O)NC(=O)[C@H](CC(C)C)n2cc(CCCN(C)C)c(C(F)(F)F)cc2=O)c1F [HW-P2, (3S)-3-(2-(5-(3-(dimethylamino)propyl)-2-oxo-4-(trifluoromethyl)pyridin-1(2H)-yl)-4-methylpentanamido)-3-(2,4,4′-trifluoro-2′,6′-dimethyl-5-(trifluoromethyl)-[1,1′-biphenyl]-3-yl)propanoic Acid] |
| < 5 | Cc1cc(-c2c(C)cc(F)cc2C)cc([C@H](CC(=O)O)NC(=O)[C@H](CC(C)C)n2cc(CCN(C)C)cc(C(F)F)c2=O)c1F [I-P2, (3S)-3-(4,4′-difluoro-2′,5,6′-trimethyl-[1,1′-biphenyl]-3-yl)-3-(2-(3-(difluoromethyl)-5-(2-(dimethylamino)ethyl)-2-oxopyridin-1(2H)-yl)-4-methylpentanamido)propanoic Acid] |
| < 5 | Cc1cc(C)c(-c2cc(C(F)(F)F)c(F)c([C@H](CC(=O)O)NC(=O)[C@H](CC(C)C)n3cc(CCN(C)C)c(C(F)(F)F)cc3=O)c2F)c(C)c1 [IF-P2, (3S)-3-(2,4-difluoro-2′,4′,6′-trimethyl-5-(trifluoromethyl)-[1,1′-biphenyl]-3-yl)-3-(2-(5-(2-(dimethylamino)ethyl)-2-oxo-4-(trifluoromethyl)pyridin-1(2H)-yl)-4-methylpentanamido)propanoic Acid] |
